Here are results for eight molecules from patent US7834007B2, “CGRP antagonists” (Bristol-Myers Squibb Company, priority 2005, dated 2010).

In this experiment the target is T1, CGRP receptor (Homo sapiens, UniProt O60894+Q16602).
T1 construct: endogenous in cells; host or cells: SK-N-MC cells (membrane homogenate)
T1 sequence (Q16602 23-461): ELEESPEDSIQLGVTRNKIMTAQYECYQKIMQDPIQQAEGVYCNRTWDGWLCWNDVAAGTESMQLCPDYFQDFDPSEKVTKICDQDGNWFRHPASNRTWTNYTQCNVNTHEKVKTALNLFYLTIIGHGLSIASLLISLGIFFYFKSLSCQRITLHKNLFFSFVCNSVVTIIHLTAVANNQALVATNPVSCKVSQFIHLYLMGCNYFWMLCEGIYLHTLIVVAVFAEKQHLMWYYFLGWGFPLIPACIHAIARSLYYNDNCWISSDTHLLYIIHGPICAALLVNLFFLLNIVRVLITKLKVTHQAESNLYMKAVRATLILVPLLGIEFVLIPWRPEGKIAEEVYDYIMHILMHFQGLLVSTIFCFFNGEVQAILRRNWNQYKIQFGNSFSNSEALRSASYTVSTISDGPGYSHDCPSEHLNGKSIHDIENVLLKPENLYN
T1 sequence (O60894 27-148): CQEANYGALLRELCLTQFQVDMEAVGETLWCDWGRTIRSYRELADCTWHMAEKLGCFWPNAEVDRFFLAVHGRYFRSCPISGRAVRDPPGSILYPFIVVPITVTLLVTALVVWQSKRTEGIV
Kind of experiment: CGRP radioligand binding assay ([125I]-CGRP displacement, SK-N-MC cell homogenate). The settings on record: displacement of 50% of [125I]-CGRP binding, room temperature 2 h. How it is done: CGRP radioligand binding assay. Tissue Culture. SK-N-MC cells were grown at 37° C. in 5% CO2 as a monolayer in medium consisting of MEM with Earle's salts and L-glutamine (Gibco) supplemented with 10% fetal bovine serum (Gibco).
Cell Pellets. The cells were rinsed twice with phosphate-buffered saline (155 mM NaCl, 3.3 mM Na2HPO4, 1.1 mM KH2PO4, pH 7.4), and incubated for 5-10 min. at 4° C. in hypotonic lysis buffer consisting of 10 mM Tris (pH 7.4) and 5 mM EDTA. The cells were transferred from plates to polypropylene tubes (16×100 mm) and homogenized using a polytron. Homogenates were centrifuged at 32,000×g for 30 min. The pellets were resuspended in cold hypotonic lysis buffer with 0.1% mammalian protease inhibitor cocktail (Sigma) and assayed for protein concentration. The SK-N-MC homogenate was then aliquoted and stored at −80° C. until needed.
Binding Assay. The compounds of invention were solubilized and carried through serial dilutions using 100% DMSO. Aliquots from the compound serial dilutions were further diluted 25 fold into assay buffer (50 mM Tris-Cl pH 7.5, 5 mM MgCl2, 0.005% Triton X-100) and transferred (volume 50 μl) into 96 well assay plates. [^125I]-CGRP (Amersham Biosciences) was diluted to 60 pM in assay buffer and a volume of 50 μl was added to each well. SK-N-MC pellets were thawed, diluted in assay buffer with fresh 0.1% mammalian protease inhibitor cocktail (Sigma), and homogenized again. SK-N-MC homogenate (5 μg/well) was added in a volume of 100 μl. The assay plates were then incubated at room temperature for 2 h. Assays were stopped by addition of excess cold wash buffer (20 mM Tris-Cl pH 7.5, 0.1% BSA) immediately followed by filtration over glass fiber filters (Whatman GF/B) previously soaked in 0.5% PEI. Non-specific binding was defined with 1 μM beta-CGRP. Protein bound radioctivity was determined using a gamma or scintillation counter. The IC50 was defined as the concentration of a compound of invention required to displace 50% of radioligand binding. Results are tabulated in Table 1 as follows: 0.01 nM≦A≦10 nM; 10 nM<B≦100 nM; 100 nM<C≦1000 nM; D>1000 nM.
On to `Cc1cc(C[C@@H](NC(=O)N2CCC(c3cc4ccccc4[nH]c3=O)CC2)C(=O)N[C@@H](CCCCN)C(=O)N2CCN(c3ccncc3)CC2)cc2cn[nH]c12` [Example 2, N-((R)-1-((S)-6-amino-1-oxo-1-(4-(pyridin-4-yl)piperazin-1-yl)hexan-2-ylamino)-3-(7-methyl-1H-indazol-5-yl)-1-oxopropan-2-yl)-4-(2-oxo-1,2-dihydroquinolin-3-yl)piperidine-1-carboxamide], for which the IC50 was in the range of 0.01 to 10 nM.

For `Cc1cc(C[C@@H](NC(=O)N2CCC(N3Cc4ccccc4NC3=O)CC2)C(=O)N[C@@H](CCCCNC(=O)OC(C)(C)C)C(=O)N2CCN(c3ccncc3)CC2)cc2cn[nH]c12` [Example 3, tert-Butyl (S)-5-((R)-3-(7-methyl-1H-indazol-5-yl)-2-(4-(2-oxo-1,2-dihydroquinazolin-3(4H)-yl)piperidine-1-carboxamido)propanamido)-6-oxo-6-(4-(pyridin-4-yl)piperazin-1-yl)hexylcarbamate], the IC50 fell in the range of 0.01 to 10 nM.

The molecule `Cc1cc(C[C@@H](NC(=O)N2CCC(N3Cc4ccccc4NC3=O)CC2)C(=O)N[C@@H](CCCCN)C(=O)N2CCN(c3ccncc3)CC2)cc2cn[nH]c12` [Example 4, N-((R)-1-((S)-6-Amino-1-oxo-1-(4-(pyridin-4-yl)piperazin-1-yl)hexan-2-ylamino)-3-(7-methyl-1H-indazol-5-yl)-1-oxopropan-2-yl)-4-(2-oxo-1,2-dihydroquinazolin-3(4H)-yl)piperidine-1-carboxamide] registered an IC50 of 0.01 to 10 nM. In the case of `Cc1cc(C[C@@H](NC(=O)N2CCC(c3cc4ccccc4[nH]c3=O)CC2)C(=O)N[C@@H](CCCCN)C(=O)N2CCC(N3CCCCC3)CC2)cc2cn[nH]c12` [Example 5, N-((R)-1-((S)-6-amino-1-oxo-1-(4-(piperidin-1-yl)piperidin-1-yl)hexan-2-ylamino)-3-(7-methyl-1H-indazol-5-yl)-1-oxopropan-2-yl)-4-(2-oxo-1,2-dihydroquinolin-3-yl)piperidine-1-carboxamide], the IC50 was 0.01 to 10 nM.

Molecule `Cc1cc(C[C@@H](NC(=O)N2CCC(c3cc4cccc(F)c4[nH]c3=O)CC2)C(=O)N[C@@H](CCCCN)C(=O)N2CCN(c3ccncc3)CC2)cc2cn[nH]c12` [Example 6, N-((R)-1-((S)-6-amino-1-oxo-1-(4-(pyridin-4-yl)piperazin-1-yl)hexan-2-ylamino)-3-(7-methyl-1H-indazol-5-yl)-1-oxopropan-2-yl)-4-(8-fluoro-2-oxo-1,2-dihydroquinolin-3-yl)piperidine-1-carboxamide] gave an IC50 of 0.01 to 10 nM. With `Cc1cc(C[C@@H](NC(=O)N2CCC(c3cc4cccnc4[nH]c3=O)CC2)C(=O)N[C@@H](CCCCN)C(=O)N2CCN(c3ccncc3)CC2)cc2cn[nH]c12` [Example 7, N-((R)-1-((S)-6-amino-1-oxo-1-(4-(pyridin-4-yl)piperazin-1-yl)hexan-2-ylamino)-3-(7-methyl-1H-indazol-5-yl)-1-oxopropan-2-yl)-4-(2-oxo-1,2-dihydro-1,8-naphthyridin-3-yl)piperidine-1-carboxamide], the IC50 lay within 0.01 to 10 nM.

The molecule `Cc1cc(C[C@@H](NC(=O)N2CCC(c3cc4ccccc4[nH]c3=O)CC2)C(=O)N[C@@H](CCCCNC(=O)OC(C)(C)C)C(=O)N2CCN(c3ccncc3)CC2)cc2oc(=O)[nH]c12` [Example 8, tert-Butyl (S)-5-((R)-3-(4-methyl-2-oxo-2,3-dihydrobenzo[d]oxazol-6-yl)-2-(4-(2-oxo-1,2-dihydroquinolin-3-yl)piperidine-1-carboxamido)propanamido)-6-oxo-6-(4-(pyridin-4-yl)piperazin-1-yl)hexylcarbamate] came in with an IC50 of 0.01 to 10 nM. In the case of `Cc1cc(C[C@@H](NC(=O)N2CCC(N3Cc4cccc(F)c4NC3=O)CC2)C(=O)N[C@@H](CCCCNC(=O)OC(C)(C)C)C(=O)N2CCN(c3ccncc3)CC2)cc2nn[nH]c12` [Example 9, tert-Butyl (S)-5-((R)-2-(4-(8-fluoro-2-oxo-1,2-dihydroquinazolin-3(4H)-yl)piperidine-1-carboxamido)-3-(7-methyl-1H-benzo[d][, 2,3]triazol-5-yl)propanamido)-6-oxo-6-(4-(pyridin-4-yl)piperazin-1-yl)hexylcarbamate], the IC50 lay within 0.01 to 10 nM.

As usually defined, the IC50 is the point on the concentration scale where inhibition reaches its midpoint. High values mean weaker potency in that assay, low ones greater potency in that assay.
